Counter-ions that a name gives are not always drawn. Like-named read-outs stand apart in the source and are kept apart here.
Assays:
bovine thrombin [1] = target: T1, bovine thrombin (Bos taurus, UniProt P00735); assay: Antithrombin activity: inhibition of fibrin formation (fibrinogen); format: biochemical
T1 construct: a 0.2 unit/ml bovine thrombin solution
Protocol: (i) Determination of inhibition activity against fibrin formation
An inhibitor sample is dissolved in a 0.18 M borate-physiological salt buffer solution (pH= 7.4) to make the total volume to 500 μl. […] Thus, a coagulation time is determined. The inhibitor concentration I50 (μmol), at which the coagulation time obtained in the absence of the inhibitor is extended twice, is determined.

bovine thrombin [2] = target: T1, bovine thrombin; assay: Antithrombin activity: inhibition of S-2238 decomposition; format: biochemical; details: Table 2; substrate S-2238, pH 8.3, 37° C.; read-out: Thrombin S-2238 I50
Protocol: An inhibitor sample is dissolved in a 0.05 M Tris-hydrochloric acid buffer solution (pH=8.3) to make a total volume of 400 μl. […] Thus, the concentration I50 (μmol) of the inhibitor sample at which the absorbance is one half (i.e., 1/2) of that obtained in the absence of the inhibitor sample, is determined.

bovine trypsin = target: T2, bovine trypsin (Bos taurus, UniProt P00760); assay: Antitrypsin activity: inhibition of S-2238 decomposition; format: biochemical
T2 sequence (P00760 24-246): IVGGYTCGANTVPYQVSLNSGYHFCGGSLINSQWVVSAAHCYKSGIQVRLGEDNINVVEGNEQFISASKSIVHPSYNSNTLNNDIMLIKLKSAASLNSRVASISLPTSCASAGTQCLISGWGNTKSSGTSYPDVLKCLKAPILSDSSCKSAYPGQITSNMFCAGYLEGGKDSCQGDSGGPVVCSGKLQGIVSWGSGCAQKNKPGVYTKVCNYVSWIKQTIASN
Protocol: Determination of inhibition activity against S-2238 decomposition
An inhibitor sample is dissolved in a 0.05 M Tris-imidazole buffer solution (pH=8.1) and 125 μl of a 1 mM S-2238 solution is added to make the total volume to 1.20 ml. The mixture is incubated at a temperature of 37° C. for 5 minutes in a constant temperature bath. To this mixture, 0.05 ml of bovine trypsin is added and the absorbance, at 405 nm, of the p-nitroaniline formed per minute is determined at a temperature of 37° C. by using the so-called initial velocity method. Thus, the concentration I50 (μmol) of a inhibitor sample, at which the absorbance is one half (i.e., 1/2) of that obtained in the absence of the inhibitor sample, is determined.

human plasmin [3] = target: T3, human plasmin (Homo sapiens, UniProt P00747); assay: Antiplasmin activity: inhibition of S-2251 decomposition; format: biochemical; details: Table 2; substrate S-2251, pH 7.4, 37° C.
Protocol: An inhibitor sample is dissolved in a 0.05 M Tris-hydrochloric acid buffer solution (pH=7.4) to make the total volume to 400 μl. […] Then, 50 μl of a 0.2 casein unit/ml human plasmin is added and the mixture is incubated at a temperature of 37° C. for 4 minutes. Thereafter, the reaction is stopped by adding 50 μl of 50% acetic acid.
Thus, the concentration I50 (μmol) of the inhibitor sample, at which the absorbance is one half (i.e., 1/2) of that obtained in the absence of the inhibitor, is determined.

human urokinase = human urokinase (Homo sapiens, UniProt P00749); assay: biochemical
Protocol: Determination of inhibition activity for S-2444 decomposition
(§1) An inhibitor sample is dissolved in a 0.05 M Tris-hydrochloric acid buffer solution (pH=8.8) to make the total volume to 400 μl. To this solution, 50 μl of a 1 mM S-2444 solution is added and the mixture is incubated at a temperature of 37° C. for 5 minutes in a constant temperature bath. Then, 50 μl of a 500 unit/ml human urokinase is added and the mixture is incubated at a temperature of 37° C. for 5 minutes. Thereafter, 50 μl of 50% acetic acid is added to terminate the reaction. The absorbance of the p-nitroaniline formed in the reaction mixture is measured at 405 nm. Thus, the concentration I50 (μmol) of the inhibitor sample, at which the absorbance is one half (i.e., 1/2) of that obtained in the absence of the inhibitor sample, is determined.

human plasmin [4] = target: T3, human plasmin; assay: Antiplasmin activity: inhibition of fibrin decomposition; format: biochemical; details: Table 2, pH 7.4, 37° C., read-out: Plasmin Fibrin I50 (concentration doubling fibrin dissolution time)
Protocol: (i) Determination of inhibition activity for fibrin decomposition
An inhibitor sample is dissolved in a 0.18 M borate-physiological salt buffer solution (pH=7.4) to make the total volume to 600 μl. To this buffer solution, 200 μl of a 0.2% bovine fibrinogen, 100 μl of a 0.3 casein unit/ml human plasmin solution, and 100 μl of a 50 unit/ml bovine thrombin solution, all dissolved in the above-mentioned buffer, are added at a temperature of 37° C. in a constant temperature bath. Then, the dissolution time of the fibrin mass formed above is determined.

human plasma kallikrein = human plasma kallikrein (Homo sapiens, UniProt P03952); assay: Anti-plasma kallikrein activity: inhibition of S-2302 decomposition; format: biochemical
Protocol: Determination of inhibition activity for S-2302 decomposition
as §1, with “solution (pH=7.8)” for “solution (pH=8.8)”, “a 2” for “a 1”, “mM S-2302” for “mM S-2444”, “a 0.12” for “a 500”, “human plasma kallikrein” for “human urokinase”

[5] = background statement; cited from earlier work
[6] = background statement; cited from earlier work; remark: listed apart in the source
[7] = background statement; cited from earlier work; remark: listed apart in the source
[8] = background statement; cited from earlier work; remark: listed apart in the source
[9] = Table 2, bovine fibrinogen, pH 7.4, 37° C., read-out: Thrombin Fibrinogen I50 (concentration doubling coagulation time)
[10] = Table 2, substrate S-2238, pH 8.1, 37° C., read-out: Trypsin S-2238 I50
[11] = Table 2, substrate S-2444, pH 8.8, 37° C., read-out: Urokinase S-2444 I50
[12] = Table 2, substrate S-2302, pH 7.8, 37° C., read-out: Plasma Kallikrein S-2302 I50

T3 sequence (P00747 581-810 limits assumed): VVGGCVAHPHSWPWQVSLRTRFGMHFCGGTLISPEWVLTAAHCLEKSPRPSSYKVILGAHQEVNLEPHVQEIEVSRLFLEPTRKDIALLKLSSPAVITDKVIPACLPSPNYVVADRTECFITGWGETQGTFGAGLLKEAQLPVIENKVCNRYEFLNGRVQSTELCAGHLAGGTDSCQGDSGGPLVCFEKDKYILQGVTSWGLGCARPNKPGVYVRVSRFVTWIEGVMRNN
T3 sequence (P00747 97-580 limits assumed): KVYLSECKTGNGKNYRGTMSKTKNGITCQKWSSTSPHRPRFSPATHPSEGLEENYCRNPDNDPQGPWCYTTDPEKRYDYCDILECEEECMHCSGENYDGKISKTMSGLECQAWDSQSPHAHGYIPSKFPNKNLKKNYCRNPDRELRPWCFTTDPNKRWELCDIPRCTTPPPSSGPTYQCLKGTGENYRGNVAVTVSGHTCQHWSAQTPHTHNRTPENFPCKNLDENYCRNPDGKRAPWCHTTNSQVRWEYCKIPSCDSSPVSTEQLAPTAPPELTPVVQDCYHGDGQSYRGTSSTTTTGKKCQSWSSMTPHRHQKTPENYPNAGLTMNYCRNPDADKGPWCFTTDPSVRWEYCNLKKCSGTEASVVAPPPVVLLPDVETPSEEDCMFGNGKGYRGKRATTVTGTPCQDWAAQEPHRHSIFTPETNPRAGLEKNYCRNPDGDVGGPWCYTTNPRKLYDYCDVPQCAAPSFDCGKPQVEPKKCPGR
Sequence of human plasma kallikrein (P03952 391-638 limits assumed): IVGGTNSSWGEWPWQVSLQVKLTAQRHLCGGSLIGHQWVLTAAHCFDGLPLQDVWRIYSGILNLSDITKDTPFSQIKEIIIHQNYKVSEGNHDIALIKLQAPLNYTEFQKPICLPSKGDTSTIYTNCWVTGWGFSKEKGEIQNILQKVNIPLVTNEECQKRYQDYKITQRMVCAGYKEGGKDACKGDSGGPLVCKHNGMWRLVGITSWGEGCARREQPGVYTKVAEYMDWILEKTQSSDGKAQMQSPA
Sequence of human plasma kallikrein (P03952 20-390 limits assumed): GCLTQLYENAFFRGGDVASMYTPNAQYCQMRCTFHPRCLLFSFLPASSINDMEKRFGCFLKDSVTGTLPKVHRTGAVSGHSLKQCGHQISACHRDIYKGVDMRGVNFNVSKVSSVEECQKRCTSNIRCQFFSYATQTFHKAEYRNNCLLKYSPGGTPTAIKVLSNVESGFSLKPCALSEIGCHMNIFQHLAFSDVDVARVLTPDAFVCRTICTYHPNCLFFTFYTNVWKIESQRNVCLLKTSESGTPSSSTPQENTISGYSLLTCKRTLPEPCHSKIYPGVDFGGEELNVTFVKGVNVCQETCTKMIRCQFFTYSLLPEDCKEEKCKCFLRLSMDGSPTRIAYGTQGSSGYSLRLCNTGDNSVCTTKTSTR

Molecule | IC50 (bovine thrombin [1]; [9]) | IC50 (bovine thrombin [2]) | IC50 (bovine trypsin; [10]) | IC50 (human plasmin [3]) | IC50 (human urokinase; [11]) | IC50 (human plasmin [4]) | IC50 (human plasma kallikrein; [12]) | also measured
NC[C@H]1CC[C@H](C(=O)NC(Cc2cccc(Oc3ccccc3)c2)C(=O)Nc2ccnc(Cl)c2)CC1 (mixture of isomers) [Compound 9, N-(trans-4-aminomethylcylohexylcarbonyl)-3-phenoxy-DL-phenylalanine 4-(2-chloro)pyridylamide dihydrochloride] | > 500 µM | > 1000 µM | 2.3 µM |  |  |  |  | 
CC(=O)c1ccc(NC(=O)C(Cc2cccc(Oc3ccccc3)c2)NC(=O)[C@H]2CC[C@H](CN)CC2)cc1 (mixture of isomers) [Compound 2, N-(trans-4-aminomethylcyclohexylcarbonyl)-3-phenoxy-DL-phenylalanine 4-acetylanilide hydrochloride] | > 100 µM | > 100 µM | 2.3 µM | 19 µM | 110 µM | 14 µM | 0.38 µM | 
NC[C@H]1CC[C@H](C(=O)NC(Cc2cccc(Oc3ccccc3)c2)C(=O)Nc2ccncc2)CC1 (mixture of isomers) [Compound 8, N-(trans-4-aminomethylcyclohexylcarbonyl)-3-phenoxy-DL-phenylalanine 4-pyridylamide dihydrochloride] | > 400 µM | > 100 µM | 8.8 µM | 65 µM | 87 µM | 24 µM | 0.83 µM | 
NC[C@H]1CC[C@H](C(=O)NC(Cc2cccc(Oc3ccccc3)c2)C(=O)O)CC1 (mixture of isomers) [Compound 58, N-(trans-4-aminomethylcyclohexylcarbonyl)-3-phenoxy-DL-phenylalanine] |  | > 1000 µM | > 150 µM |  | > 1000 µM |  | 600 µM | 
COCCCNC(=O)C(Cc1cccc(C(F)(F)F)c1)NC(=O)[C@H]1CC[C@H](CN)CC1 (stereo partly shown) [Compound 28] | > 1000 µM |  | 87 µM | > 1000 µM | > 1000 µM | 260 µM | > 1000 µM | 
CCOC(=O)C1CCN(C(=O)C(Cc2cccc(Oc3ccccc3)c2)NC(=O)[C@H]2CC[C@H](CNC(=N)N)CC2)CC1 (stereo partly shown) [Compound 31] | > 100 µM |  | > 150 µM | 160 µM | > 500 µM | > 100 µM | > 100 µM | 
CC(=O)c1ccc(NC(=O)C(Cc2cccc(Oc3ccccc3)c2)NC(=O)c2ccc(NC(=N)N)cc2)cc1 (stereo not shown) [Compound 32] | > 25 µM |  | 15 µM | 120 µM | 100 µM | > 25 µM | 2.2 µM | 
CCOC(=O)c1cccc(NC(=O)C(Cc2cccc(Oc3ccccc3)c2)NC(=O)c2ccc(NC(=N)N)cc2)c1 (stereo not shown) [Compound 33] |  |  | 42 µM | > 100 µM | > 200 µM | > 25 µM | 4.5 µM | IC50 (bovine thrombin [1]): > 25 µM
N=C(N)c1ccc2cc(OC(=O)c3ccc(N=C(N)N)cc3)ccc2c1 [FUT-175, reference compound] |  |  |  |  |  |  |  | LD50 value [5]: small; IC50 (human urokinase): 0.013 µM; half life in vivo [6]: short; hypotensive action [7]: large; IC50 (human plasma kallikrein): 0.076 µM; IC50 (bovine trypsin): 0.27 µM
Aprotinin |  |  |  |  |  |  |  | side effects when administered to humans [8]: side effects such as allergic reactions
